Measurements published in patent US12661369B2, “Muscular atrophy inhibitor and method for inhibiting muscular atrophy” (YAMASA CORPORATION, priority 2020, dated 2026).
“Also recorded” adds a separate entry of the source.

Columns and labels:
Type in all cases: cell-based, Mouse
[1] = tested on: C2C12 cells differentiated into myotube cells; test: Dexamethasone-induced myotube atrophy in C2C12 cells, myotube cell diameter (Example 1-2, also used for Examples 2 and 3)
Procedure: (§1) Mouse myoblast cell line C2C12 cells (RIKEN BRC, RCB0987) were suspended in growth medium (Dulbecco's modified Eagle's Medium supplemented with 10% FBS, 100 units/ml of penicillin, 100 μg/ml of streptomycin), seeded in 24-well plates, and incubated in a 37° C., 5% CO2 incubator until the cell density reached 70-90%.
The growth medium was removed, and exchanged to a differentiation induction medium (Dulbecco's modified Eagle's Medium supplemented with 2% adult bovine serum, 100 units/ml of penicillin, 100 μg/ml of streptomycin). The cells were cultured for 4 days while exchanging the medium once every 2 days and differentiated into myotube cells. The medium was removed and exchanged to the following media: • (1) Differentiation induction medium containing no dexamethasone [Dex (−)]; • (2) Differentiation induction medium containing 100 μM dexamethasone [Dex (+)]; • (3) Differentiation induction medium containing 100 μM dexamethasone and a certain amount of disodium cytidylate [Dex (+), a certain amount of CMP]; • (4) Differentiation induction medium containing 100 μM dexamethasone and a certain amount of cytidine [Dex (+), a certain amount of cytidine (which may be abbreviated as “Cyd”)]; • (5) Differentiation induction medium containing 100 μM dexamethasone and a certain amount of disodium uridylate [Dex (+), certain amount of UMP]; and • (6) Differentiation induction medium containing 100 μM dexamethasone and a certain amount of uridine [Dex (+), certain amount of uridine].
After culturing the cells for 3 days, five positions near the center of the wells were photographed at magnifications of 100. Using ImageJ image analysis software, the diameters of 10 myotube cells per a photograph were measured in the order from the myotube cell having the largest diameter, and an average of 50 cells was determined to be the diameter of the myotube cell in each well. Statistical analysis was performed by t-test or Dunnett's multiple comparison test using the differentiation induction medium treatment group supplemented only with 100 μM dexamethasone as a control. The threshold for statistical significance was set to 5%.
Cytidylic acid and uridylic were added to the medium at the concentrations shown in FIG. 7 so that the total concentration of cytidylic acid and uridylic acid was 1000 μM.
In Example 2, the total concentration of cytidylic acid/uridylic acid added to the medium was adjusted to 1000 μM and a ratio of the cytidylic acid/uridylic acid was varied.
Similarly, the effect of the combination of cytidine and uridine were also evaluated.

[2] = tested on: MuRF1; test: MuRF1 mRNA expression in dexamethasone-treated C2C12 myotube cells (Example 4); conditions: 48 hours pretreatment, then 1 μM dexamethasone plus test substance 24 hours, corrected by β-actin
Procedure: (§2) Mouse myoblast cell line C2C12 cells were suspended in growth medium, seeded in 24-well plates, and incubated in a 37° C., 5% C02 incubator until the cell density reached 70-90%. The growth medium was removed, and exchanged to a differentiation induction medium. The cells were cultured for 6 days while exchanging the medium once every 2 days and differentiated into myotube cells. The medium was removed and exchanged to a differentiation induction medium or a differentiation induction medium containing a test substance. After 48 hours, the medium was removed and replaced with a differentiation induction medium, a differentiation induction medium supplemented only with 1 μM dexamethasone, or a medium supplemented with 1 μM dexamethasone and test substances (a certain amount of UMP (disodium uridylate), a certain amount of Urd (uridine), and […]).
(§3) After 24 hours, the medium was removed and total RNA was extracted from the cells using RNeasy Mini kit (QIAGEN) or NucleoSpin RNA (Takara Bio).
(§4) Using the total RNA as a template, a reverse transcription reaction solution was prepared using the ReverTra Ace(R) qPCR RT Kit (Toyobo). […] Analysis was performed by relative quantification, and mRNA expression levels were corrected using the β-actin mRNA expression level as an endogenous control. […]

[3] = tested on: Atrogin-1; test: Atrogin-1 mRNA expression in dexamethasone-treated C2C12 myotube cells (Example 4); conditions: 48 hours pretreatment, then 1 μM dexamethasone plus test substance 24 hours, corrected by β-actin
Procedure: as §2, §3, §4

[4] = tested on: C2C12 cells differentiated into myotube cells; test: Dexamethasone-induced myotube atrophy in C2C12 cells, myotube cell diameter (Example 1-1); conditions: 100 μM dexamethasone plus 2 mM or 5 mM disodium uridylate, 48 hours, vs Dex (+), UMP (−)
Procedure: as §1, with “C02” for “CO2”
The growth medium was removed, and exchanged to a differentiation induction medium (Dulbecco's modified Eagle's Medium supplemented with 2% adult bovine serum, 100 units/ml of penicillin, 100 μg/ml of streptomycin). The cells were cultured for 4 days while exchanging the medium once every 2 days and differentiated into myotube cells. […]
After 24 hours, the medium was changed again. […] Using ImageJ image analysis software, the diameters of 10 myotube cells per a photograph were measured in the order from the myotube cell having the largest diameter, and an average of 50 cells was determined to be the diameter of the myotube cell in each well. […]

[5] = Example 1-2, 100 μM dexamethasone plus a certain amount of test substance, 3 days, vs Dex (+) only
[6] = Example 3, 100 μM dexamethasone plus single test substance

Compound | myotube cell diameter [1, 5] | myotube cell diameter [1, 6] | mRNA expression level of MuRF1 [2] | mRNA expression level of Atrogin-1 [3] | myotube cell diameter [4]
Nc1ccn([C@@H]2O[C@H](COP(=O)(O)O)[C@@H](O)[C@H]2O)c(=O)n1 [cytidylic acid] | significantly increased; also recorded: myotube cell atrophy inhibiting effect | significantly increased |  |  | 
Nc1ccn([C@@H]2O[C@H](CO)[C@@H](O)[C@H]2O)c(=O)n1 [cytidine] | significantly increased; also recorded: myotube cell atrophy inhibiting effect | significantly increased |  |  | 
O=c1ccn([C@@H]2O[C@H](CO)[C@@H](O)[C@H]2O)c(=O)[nH]1 [uridine] | significantly increased; also recorded: myotube cell atrophy inhibiting effect | significantly increased | decreased; also recorded: excellent inhibiting effect | decreased; also recorded: excellent inhibiting effect | 
O=c1ccn([C@@H]2O[C@H](COP(=O)(O)O)[C@@H](O)[C@H]2O)c(=O)[nH]1 [uridylic acid] | significantly increased; also recorded: myotube cell atrophy inhibiting effect | significantly increased | decreased; also recorded: excellent inhibiting effect | decreased; also recorded: excellent inhibiting effect | the reduction was suppressed
